Our source for the melting point values is US6967201B1, “Benzofurylpiperazines and benzofurylhomopiperazines: serotonin agonists” (Eli Lilly and Company, priority 1999, dated 2005).

Regarding `C[C@H]1CN(c2ccc(F)c3ccoc23)CCN1.O=C(O)C(=O)O`, the melting point is 191 °C (dec.).
On to `CC1(C)CNCCN1c1cc(F)cc2ccoc12.O=C(O)/C=C/C(=O)O`, for which the melting point fell in the range of 162 to 165 °C.
`C[C@@H]1CN(c2ccc(F)c3ccoc23)CCN1.O=C(O)C(=O)O`: the melting point is 192 °C (dec.).
